Calls of active or inactive are those of the source. The rule behind the calls is not given here.
Assays:
Conditions in all cases: Membrane
[1] = target: Cannabinoid receptor 1 (Homo sapiens) (UniProt P21554); experiment: Displacement of [3H]-CP-55,940 from full-length recombinant human CB1R expressed in CHO-K1 cell membranes at 10 uM incubated for 90 mins by TopCount scintillation counting method relative to control
[2] = target: Mu-type opioid receptor (Homo sapiens) (UniProt P35372); experiment: Displacement of [3H]-DAMGO from human mu opioid receptor expressed in CHO-K1 cell membranes at 10 uM incubated for 60 mins by TopCount scintillation counting method relative to control
[3] = target: Cannabinoid receptor 2 (Homo sapiens) (UniProt P34972); experiment: Displacement of [3H]-CP-55,940 from full-length recombinant human CB2R expressed in CHO-K1 cell membranes at 10 uM incubated for 90 mins by TopCount scintillation counting method relative to control
[4] = target: Kappa-type opioid receptor (Homo sapiens) (UniProt P41145); experiment: Displacement of [3H]-U69593 from human kappa opioid receptor expressed in CHO-K1 cell membranes at 10 uM incubated for 60 mins by TopCount scintillation counting method relative to control
[5] = target: Delta-type opioid receptor (Homo sapiens) (UniProt P41143); experiment: Displacement of [3H]-DPDPE from human delta opioid receptor expressed in CHO-K1 cell membranes at 10 uM incubated for 60 mins by TopCount scintillation counting method relative to control
Chain of Delta-type opioid receptor (Homo sapiens) (P41143 whole entry): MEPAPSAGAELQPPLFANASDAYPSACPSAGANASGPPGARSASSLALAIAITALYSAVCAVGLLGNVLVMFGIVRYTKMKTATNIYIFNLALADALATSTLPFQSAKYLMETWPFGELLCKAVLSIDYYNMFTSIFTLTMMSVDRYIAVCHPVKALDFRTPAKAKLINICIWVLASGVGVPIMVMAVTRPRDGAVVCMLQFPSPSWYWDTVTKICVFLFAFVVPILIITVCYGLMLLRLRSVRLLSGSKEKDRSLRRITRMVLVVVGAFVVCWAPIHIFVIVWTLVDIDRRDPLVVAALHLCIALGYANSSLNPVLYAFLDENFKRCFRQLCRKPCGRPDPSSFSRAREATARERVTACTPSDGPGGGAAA

Chain of Cannabinoid receptor 2 (Homo sapiens) (P34972 whole entry): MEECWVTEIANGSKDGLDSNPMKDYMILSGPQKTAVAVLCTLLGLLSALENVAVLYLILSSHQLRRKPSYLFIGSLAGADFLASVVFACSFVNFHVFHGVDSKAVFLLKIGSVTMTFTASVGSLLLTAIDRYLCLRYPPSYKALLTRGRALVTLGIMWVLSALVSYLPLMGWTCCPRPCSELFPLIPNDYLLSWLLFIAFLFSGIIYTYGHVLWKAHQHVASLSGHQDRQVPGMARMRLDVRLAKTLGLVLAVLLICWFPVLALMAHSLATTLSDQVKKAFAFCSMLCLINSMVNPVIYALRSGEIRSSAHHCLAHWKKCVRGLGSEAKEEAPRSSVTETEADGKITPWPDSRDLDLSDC
Chain of Cannabinoid receptor 1 (Homo sapiens) (P21554 whole entry): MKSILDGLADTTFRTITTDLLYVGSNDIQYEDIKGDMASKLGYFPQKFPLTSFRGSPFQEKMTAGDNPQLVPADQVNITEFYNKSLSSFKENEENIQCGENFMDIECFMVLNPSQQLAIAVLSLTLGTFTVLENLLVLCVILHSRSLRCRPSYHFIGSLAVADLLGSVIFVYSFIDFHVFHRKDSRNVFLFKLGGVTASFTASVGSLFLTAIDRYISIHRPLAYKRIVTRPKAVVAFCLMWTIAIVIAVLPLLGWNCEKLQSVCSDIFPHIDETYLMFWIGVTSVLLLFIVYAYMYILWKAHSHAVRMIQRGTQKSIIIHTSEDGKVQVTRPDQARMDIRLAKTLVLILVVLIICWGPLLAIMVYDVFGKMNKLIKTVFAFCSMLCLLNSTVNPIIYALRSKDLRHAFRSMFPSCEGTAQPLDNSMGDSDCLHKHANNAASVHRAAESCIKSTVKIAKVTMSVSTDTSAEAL
Chain of Mu-type opioid receptor (Homo sapiens) (P35372 whole entry): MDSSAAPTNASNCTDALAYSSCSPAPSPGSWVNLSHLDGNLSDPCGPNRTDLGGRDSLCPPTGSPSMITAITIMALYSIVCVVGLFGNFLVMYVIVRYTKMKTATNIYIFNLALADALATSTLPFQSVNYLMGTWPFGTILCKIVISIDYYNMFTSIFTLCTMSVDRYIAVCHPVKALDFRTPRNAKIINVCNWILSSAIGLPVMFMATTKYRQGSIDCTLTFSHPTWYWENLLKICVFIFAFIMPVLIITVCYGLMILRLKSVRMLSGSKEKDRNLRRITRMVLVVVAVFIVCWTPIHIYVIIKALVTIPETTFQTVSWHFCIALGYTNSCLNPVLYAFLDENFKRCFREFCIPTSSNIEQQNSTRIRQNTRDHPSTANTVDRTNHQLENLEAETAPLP
Chain of Kappa-type opioid receptor (Homo sapiens) (P41145 whole entry): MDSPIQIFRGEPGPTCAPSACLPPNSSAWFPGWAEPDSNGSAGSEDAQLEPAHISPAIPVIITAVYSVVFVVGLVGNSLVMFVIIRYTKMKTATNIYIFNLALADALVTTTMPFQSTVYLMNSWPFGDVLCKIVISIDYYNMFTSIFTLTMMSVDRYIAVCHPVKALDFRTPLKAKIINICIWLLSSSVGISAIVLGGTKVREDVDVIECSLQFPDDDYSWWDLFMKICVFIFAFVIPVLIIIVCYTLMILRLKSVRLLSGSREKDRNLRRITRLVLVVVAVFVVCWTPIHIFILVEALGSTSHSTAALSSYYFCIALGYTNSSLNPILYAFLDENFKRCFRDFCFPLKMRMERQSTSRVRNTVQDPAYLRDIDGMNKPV

SMILES | Activity [1] | Activity [2] | Activity [3] | Activity [4] | Activity [5]
COc1cc2c(c(O)c1C)C(=O)[C@@]1(O)c3cccc(O)c3O[C@@H](OC)[C@@H]1O2 | 42.2% | 39.6% | 7.4% | 28.9% | 20.1%
COc1c(C)c(O)c2c(c1C)O[C@H]1COc3c(O)cccc3[C@]1(O)C2=O | inactive | 45.9% | inactive | 38.9% | 15.2%
COc1cc2c(c(O)c1C)C(=O)[C@@]1(O)c3cccc(OC)c3O[C@@H](OC)[C@@H]1O2 | inactive | 58.6% | 5.4% | 30.5% | 12.3%
COc1cc2c(c(O)c1C)C(=O)[C@@]1(O)c3cccc(O)c3OC[C@@H]1O2 | inactive | 50.9% | inactive | 21.8% | 26.3%
COc1c(C)c(O)c2c(c1C)O[C@H]1[C@H](OC)Oc3c(O)cccc3[C@]1(O)C2=O | 17% | 55.3% | inactive | 41.8% | 31.6%
CO[C@@H]1Oc2ccccc2-c2c1oc1cc(O)c(C)c(O)c1c2=O | inactive | 64.5% | inactive | 48.8% | 24.5%

From ChEMBL document CHEMBL4819054, “Rotenoids and Other Specialized Metabolites from the Roots of Mirabilis multiflora: Opioid and Cannabinoid Receptor Radioligand Binding Affinities” (J Nat Prod, 2021)
